In patent publication US9133148B2, “Carbamate compounds and of making and using same” (Abide Therapeutics, Inc., priority 2012, dated 2015) one finds inhibition and IC50 data, which are given here for 23 compounds.

A value given as a limit tells only on which side of the number the result lay.

Type in all cases: biochemical
The target in assay [1] is T1, MAGL (Mus musculus (Mouse), UniProt O35678). As to the kind of experiment: Competitive ABPP, % inhibition at 1 uM, MAGL. Here is the method: (§1) In Vitro Competitive Activity-Based Protein Profiling.
(§2) Proteomes (mouse brain membrane fraction or cell lysates) ([…], 1.0 mg/mL total protein concentration) were preincubated with varying concentrations of inhibitors at 37° C. After 30 min, FP-Rh (1.0 μL, 50 μM in DMSO) was added and the mixture was incubated for another 30 min at 37° C. Reactions were quenched with SDS loading buffer (50 μL—4×) and run on SDS-PAGE.

For assay [2], the target named is T2, FAAH (Mus musculus (Mouse), UniProt O08914). As to the kind of experiment: Competitive ABPP, % inhibition at 1 uM, FAAH. The method, then: as §1
Proteomes (mouse brain membrane fraction or cell lysates) ([…], 1.0 mg/mL total protein concentration) were preincubated with varying concentrations of inhibitors at 37° C. After 30 min, FP-Rh (1.0 μL, 50 μM in DMSO) was added and the mixture was incubated for another 30 min at 37° C. Reactions were quenched with SDS loading buffer (50 μL—4×) and run on SDS-PAGE. Following gel imaging, serine hydrolase activity was determined by measuring fluorescent intensity of gel bands corresponding to MAGL, ABHD6 and FAAH using ImageJ 1.43u software.

The target of assay [3] is T3, ABHD6 (Mus musculus (Mouse), UniProt Q8R2Y0). As to the kind of experiment: Competitive ABPP, % inhibition at 1 uM, ABHD6. Here is the method:
as §1, §2

For assay [4], the target named is T1, MAGL. As to the kind of experiment: In vitro competitive activity-based protein profiling (FP-Rh), mouse MAGL. As to conditions: mouse brain membrane proteome. The method, then:
as §1, §2

Assay [5] deals with T2, FAAH. The assay can be described thus: In vitro competitive activity-based protein profiling (FP-Rh), mouse FAAH. Particulars: mouse brain membrane proteome. The method, then: as §1, §2
In assay [6] the target is T3, ABHD6. As to the kind of experiment: In vitro competitive activity-based protein profiling (FP-Rh), mouse ABHD6. Particulars: mouse brain membrane proteome. The method, then: as §1, §2

T1 sequence (O35678 whole entry): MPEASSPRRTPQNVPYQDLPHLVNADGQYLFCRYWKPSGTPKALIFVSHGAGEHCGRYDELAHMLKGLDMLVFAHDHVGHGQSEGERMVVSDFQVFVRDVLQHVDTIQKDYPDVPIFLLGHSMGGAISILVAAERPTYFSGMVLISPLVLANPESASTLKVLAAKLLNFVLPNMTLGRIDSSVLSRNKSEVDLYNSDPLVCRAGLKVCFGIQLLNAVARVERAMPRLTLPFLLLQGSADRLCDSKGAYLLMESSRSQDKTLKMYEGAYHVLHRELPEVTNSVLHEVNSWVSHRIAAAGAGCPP
T3 sequence (Q8R2Y0 whole entry): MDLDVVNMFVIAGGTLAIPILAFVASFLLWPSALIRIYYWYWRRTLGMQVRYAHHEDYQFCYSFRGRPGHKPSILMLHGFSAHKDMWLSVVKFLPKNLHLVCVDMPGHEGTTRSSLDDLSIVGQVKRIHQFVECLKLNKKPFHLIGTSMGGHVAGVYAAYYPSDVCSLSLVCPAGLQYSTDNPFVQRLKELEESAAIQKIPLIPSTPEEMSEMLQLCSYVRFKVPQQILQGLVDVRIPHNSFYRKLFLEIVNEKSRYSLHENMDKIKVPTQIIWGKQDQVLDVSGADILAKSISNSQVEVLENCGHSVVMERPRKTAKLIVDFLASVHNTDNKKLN
T2 sequence (O08914 whole entry): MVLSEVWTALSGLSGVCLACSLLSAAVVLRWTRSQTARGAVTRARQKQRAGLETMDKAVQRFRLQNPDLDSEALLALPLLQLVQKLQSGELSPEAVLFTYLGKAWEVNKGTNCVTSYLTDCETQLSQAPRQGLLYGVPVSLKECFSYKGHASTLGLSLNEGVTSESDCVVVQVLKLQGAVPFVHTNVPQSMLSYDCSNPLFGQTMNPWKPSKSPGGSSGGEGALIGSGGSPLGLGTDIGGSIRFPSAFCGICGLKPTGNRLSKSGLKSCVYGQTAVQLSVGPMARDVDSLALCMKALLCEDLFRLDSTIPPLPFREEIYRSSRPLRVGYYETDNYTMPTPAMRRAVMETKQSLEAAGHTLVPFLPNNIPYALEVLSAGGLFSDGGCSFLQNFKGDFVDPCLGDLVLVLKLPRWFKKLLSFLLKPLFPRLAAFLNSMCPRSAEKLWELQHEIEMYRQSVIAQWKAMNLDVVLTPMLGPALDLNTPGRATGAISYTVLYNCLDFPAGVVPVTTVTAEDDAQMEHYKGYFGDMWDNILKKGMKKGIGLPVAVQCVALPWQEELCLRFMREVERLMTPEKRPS

The inhibition is the share of the control response that was lost under treatment. The low end stands for a response near the control, the high end for a response far below the control. On to `CC(C)c1cc(-c2ccccc2)ccc1CN1CCN(C(=O)OC(C(F)(F)F)C(F)(F)F)CC1` [Example 9at, 1,1,1,3,3,3-hexafluoropropan-2-yl 4-((3-isopropyl-[1,1′-biphenyl]-4-yl)methyl)piperazine-1-carboxylate], for which the inhibition at 1 µM was 25 to 75% at MAGL [1], below 25% at FAAH [2] and below 25% at ABHD6 [3].

In the case of `O=C(OC(C(F)(F)F)C(F)(F)F)N1CCN(Cc2ccc(-c3cccc(F)c3)cn2)CC1` [Example 11k, 1,1,1,3,3,3-hexafluoropropan-2-yl 4-[[5-(3-fluorophenyl)pyridin-2-yl]methyl]piperazine-1-carboxylate], the inhibition at 1 µM was above 75% on MAGL [1], below 25% on FAAH [2] and 25 to 75% on ABHD6 [3].

With `Cc1cc(-c2ccc(CN3CCN(C(=O)OC(C(F)(F)F)C(F)(F)F)CC3)c(F)c2)ccn1` [Example 11g, 1,1,1,3,3,3-hexafluoropropan-2-yl 4-[[2-fluoro-4-(2-methylpyridin-4-yl)phenyl]methyl]piperazine-1-carboxylate], the inhibition at 1 µM is above 75% on MAGL [1], below 25% at FAAH [2] and above 75% on ABHD6 [3].

Consider `Cc1cnccc1-c1ccc(CN2CCN(C(=O)OC(C(F)(F)F)C(F)(F)F)CC2)c(F)c1` [Example 11ab, 1,1,1,3,3,3-hexafluoropropan-2-yl 4-[[2-fluoro-4-(3-methylpyridin-4-yl)phenyl]methyl]piperazine-1-carboxylate], for which the inhibition at 1 µM was above 75% on MAGL [1], below 25% at FAAH [2] and 25 to 75% on ABHD6 [3].

With `Cc1cccc(-c2ccc(CN3CCN(C(=O)OC(C(F)(F)F)C(F)(F)F)CC3)c(C)c2)c1` [Example 11h, 1,1,1,3,3,3-hexafluoropropan-2-yl 4-[[2-methyl-4-(3-methylphenyl)phenyl]methyl]piperazine-1-carboxylate], the inhibition at 1 µM at MAGL [1] was 25 to 75%; on FAAH [2] it was below 25%; at ABHD6 [3] it was below 25%.

As for `O=C(OC(C(F)(F)F)C(F)(F)F)N1CCN(Cc2ccc(N3CCOCC3)cc2C(F)(F)F)CC1` [Example 9aj, 1,1,1,3,3,3-hexafluoropropan-2-yl 4-[[4-(morpholin-4-yl)-2-(trifluoromethyl)phenyl]methyl]piperazine-1-carboxylate], the results for the inhibition at 1 µM on MAGL [1], at FAAH [2] and at ABHD6 [3] were 25 to 75%, below 25% and 25 to 75%, respectively.

As for `CC1CN(C(=O)OC(C(F)(F)F)C(F)(F)F)CCN1C(c1ccc(Cl)cc1)c1ccc(Cl)cc1` (stereo not drawn) [Example 2h, 1,1,1,3,3,3-hexafluoropropan-2-yl 4-[bis(4-chlorophenyl)methyl]-3-methylpiperazine-1-carboxylate], the inhibition at 1 µM at MAGL [1] is 25 to 75%; on FAAH [2] it was below 25%; at ABHD6 [3], 25 to 75%.

For `O=C(OC(C(F)(F)F)C(F)(F)F)N1CCN(Cc2ccc(-c3cccc(F)c3)cc2F)CC1` [Example 11o, 1,1,1,3,3,3-hexafluoropropan-2-yl 4-[[2-fluoro-4-(3-fluorophenyl)phenyl]methyl]piperazine-1-carboxylate], the inhibition at 1 µM is above 75% on MAGL [1], below 25% on FAAH [2] and 25 to 75% on ABHD6 [3].

Take `Cc1cccc(-c2ccc(CN3CCN(C(=O)OC(C(F)(F)F)C(F)(F)F)CC3)c(Oc3ccccc3)c2)c1` [Example 11r, 1,1,1,3,3,3-hexafluoropropan-2-yl 4-[[4-(3-methylphenyl)-2-phenoxyphenyl]methyl]piperazine-1-carboxylate]: the inhibition at 1 µM was 25 to 75% on MAGL [1], below 25% at FAAH [2] and below 25% at ABHD6 [3].

On to `Cc1ccccc1-c1ccc(CN2CCN(C(=O)OC(C(F)(F)F)C(F)(F)F)CC2)nc1C` [Example 11u, 1,1,1,3,3,3-hexafluoropropan-2-yl 4-[[6-methyl-5-(2-methylphenyl)pyridin-2-yl]methyl]piperazine-1-carboxylate], for which the inhibition at 1 µM at MAGL [1] was 25 to 75%; on FAAH [2], below 25%; on ABHD6 [3], 25 to 75%.

Take `Cc1nc(CN2CCN(C(=O)OC(C(F)(F)F)C(F)(F)F)CC2)ccc1-c1ccccc1F` [Example 11v, 1,1,1,3,3,3-hexafluoropropan-2-yl 4-[[5-(2-fluorophenyl)-6-methyl-pyridin-2-yl]methyl]piperazine-1-carboxylate]: the inhibition at 1 µM at MAGL [1] is above 75%; at FAAH [2], below 25%; on ABHD6 [3], above 75%.

As to `O=C(OC(C(F)(F)F)C(F)(F)F)N1CCN(Cc2ccc(N3CCOCC3)cc2OC(F)(F)F)CC1` [Example 9ak, 1,1,1,3,3,3-hexafluoropropan-2-yl 4-[[4-(morpholin-4-yl)-2-(trifluoromethoxy)phenyl]methyl]piperazine-1-carboxylate], the inhibition at 1 µM at MAGL [1] is above 75%; on FAAH [2], below 25%; on ABHD6 [3] it was 25 to 75%.

Consider `O=C(OC(C(F)(F)F)C(F)(F)F)N1CCN(Cc2ccc(Cl)cc2)CC1` [Example 9o, 1,1,1,3,3,3-hexafluoropropan-2-yl 4-(4-chlorobenzyl)piperazine-1-carboxylate], for which, on FAAH [2], the inhibition at 1 µM is below 25%.

For `C[C@H]1CN(Cc2ccc(N3CCOCC3)cc2C(F)(F)F)CCN1C(=O)OC(C(F)(F)F)C(F)(F)F` [Example 9j, 1,1,1,3,3,3-hexafluoropropan-2-yl(2S)-2-methyl-4-[[4-(morpholin-4-yl)-2-(trifluoromethyl)phenyl]methyl]piperazine-1-carboxylate], the inhibition at 1 µM on MAGL [1] is 25 to 75%; at FAAH [2] it was below 25%; at ABHD6 [3], 25 to 75%.

Take `Cc1ncccc1-c1ccc(CN2CCN(C(=O)OC(C(F)(F)F)C(F)(F)F)CC2)c(F)c1` [Example 11t, 1,1,1,3,3,3-hexafluoropropan-2-yl 4-[[2-fluoro-4-(2-methylpyridin-3-yl)phenyl]methyl]piperazine-1-carboxylate]: the values for the inhibition at 1 µM at MAGL [1], at FAAH [2] and on ABHD6 [3] were above 75%, below 25% and 25 to 75%, respectively.

Regarding `O=C(OC(C(F)(F)F)C(F)(F)F)N1CCN(Cc2c(Cl)cccc2N2CCCC2)CC1` [Example 9m, 1,1,1,3,3,3-hexafluoropropan-2-yl 4-[[2-chloro-6-(pyrrolidin-1-yl)phenyl]methyl]piperazine-1-carboxylate], the inhibition at 1 µM at MAGL [1] was 25 to 75%; at FAAH [2], below 25%; at ABHD6 [3], 25 to 75%.

With `O=C(OC(C(F)(F)F)C(F)(F)F)N1CCN(Cc2c(Cl)cccc2N2CCOCC2)CC1` [Example 9ac, 1,1,1,3,3,3-hexafluoropropan-2-yl 4-[[2-chloro-6-(morpholin-4-yl)phenyl]methyl]piperazine-1-carboxylate], the inhibition at 1 µM on FAAH [2] is below 25%.

In turn, `Cn1ncc2cc(C(c3ccc4c(cnn4C)c3)N3CCN(C(=O)OC(C(F)(F)F)C(F)(F)F)CC3)ccc21` [Example 2k, 1,1,1,3,3,3-hexafluoropropan-2-yl 4-(bis(1-methyl-1H-indazol-5-yl)methyl)piperazine-1-carboxylate] registered an inhibition at 1 µM at FAAH [2] below 25%.

Broadly, the IC50 is the concentration that gives 50% inhibition. Low values mean inhibition by little substance, high ones a need for much substance. In the case of `CC(C)(C)OC(=O)N1CCN(C(=O)OC(C(F)(F)F)C(F)(F)F)CC1` [Example 3d, 1-tert-butyl 4-(1,1,1,3,3,3-hexafluoropropan-2-yl)piperazine-1,4-dicarboxylate], the IC50 at MAGL [4] (competitive ABPP) was above 1000 nM; at FAAH [5] (competitive ABPP) it was above 10000 nM; at ABHD6 [6] (competitive ABPP), above 1000 nM.

Take `COc1cc(-c2ccccc2)ccc1CN1CCN(C(=O)OC(C(F)(F)F)C(F)(F)F)CC1` [Example 11j, 1,1,1,3,3,3-hexafluoropropan-2-yl 4-[(2-methoxy-4-phenylphenyl)methyl]piperazine-1-carboxylate]: the IC50 was below 100 nM on MAGL [4] (competitive ABPP (Table 7)), above 10000 nM on FAAH [5] (competitive ABPP (Table 7)) and above 1000 nM on ABHD6 [6] (competitive ABPP (Table 7)).

Turning to `CC(=O)N[C@H]1CCN(c2cc(Cl)ccc2CN2CCN(C(=O)OC(C(F)(F)F)C(F)(F)F)CC2)C1` [Example 9bb, (S)-1,1,1,3,3,3-hexafluoropropan-2-yl 4-(2-(3-acetamidopyrrolidin-1-yl)-4-chlorobenzyl)piperazine-1-carboxylate], the values for the IC50 on MAGL [4] (competitive ABPP (Table 7)), at FAAH [5] (competitive ABPP (Table 7)) and at ABHD6 [6] (competitive ABPP (Table 7)) were below 100 nM, above 10000 nM and above 1000 nM, respectively.

Consider `O=C(OC(C(F)(F)F)C(F)(F)F)N1CCN(Cc2ccc(N3CCCC3)c(F)c2)CC1` [Example 9aa, 1,1,1,3,3,3-hexafluoropropan-2-yl 4-(3-fluoro-4-(pyrrolidin-1-yl)benzyl)piperazine-1-carboxylate], for which the IC50 is 100 to 1000 nM at MAGL [4] (competitive ABPP (Table 7)), above 10000 nM on FAAH [5] (competitive ABPP (Table 7)) and 100 to 1000 nM on ABHD6 [6] (competitive ABPP (Table 7)).

As to `COC(=O)C(OC(=O)N(C)CCc1ccccc1)C(F)(F)F` (stereo not drawn) [Example 7k, Methyl 3,3,3-trifluoro-2-((methyl(phenethyl)carbamoyl)oxy)propanoate], the IC50 at MAGL [4] (competitive ABPP) was above 1000 nM; at FAAH [5] (competitive ABPP), above 10000 nM; on ABHD6 [6] (competitive ABPP), above 1000 nM.
